Data on 12 molecules can be found in ChEMBL document CHEMBL1201862, “PubChem BioAssay data set” (2004).

Each structure is given as a SMILES string. Calls of active or inactive are those of the source. Some results are limits rather than exact numbers.

The target in experiment [1] is T1, NADPH oxidase 1 (Homo sapiens, UniProt Q9Y5S8). In kind it is functional, cell-based.
In experiment [2] the target is T1, NADPH oxidase 1. As to the kind of experiment: Late-stage luminescence-based cell-based dose response assay to identify inhibitors of NADPH oxidase 1 (NOX1): Synthesized analogs 2. In kind it is functional.
The target of experiment [3] is Aryl hydrocarbon receptor (Homo sapiens, UniProt P35869). Kind of experiment: Luminescence-based cell-based high throughput dose response assay for activators of the Aryl Hydrocarbon Receptor (AHR). [Related pubchem assays: 2796 (Primary screen (AHR activators in singlicate)), 2845 (Confirmation screen (AHR activators in triplicate)), 434939 (Counterscreen (PXR activators in triplicate)), 2804 (Summary (AHR activators))]. In kind it is ADME.
Aryl hydrocarbon receptor, sequence (P35869 whole entry): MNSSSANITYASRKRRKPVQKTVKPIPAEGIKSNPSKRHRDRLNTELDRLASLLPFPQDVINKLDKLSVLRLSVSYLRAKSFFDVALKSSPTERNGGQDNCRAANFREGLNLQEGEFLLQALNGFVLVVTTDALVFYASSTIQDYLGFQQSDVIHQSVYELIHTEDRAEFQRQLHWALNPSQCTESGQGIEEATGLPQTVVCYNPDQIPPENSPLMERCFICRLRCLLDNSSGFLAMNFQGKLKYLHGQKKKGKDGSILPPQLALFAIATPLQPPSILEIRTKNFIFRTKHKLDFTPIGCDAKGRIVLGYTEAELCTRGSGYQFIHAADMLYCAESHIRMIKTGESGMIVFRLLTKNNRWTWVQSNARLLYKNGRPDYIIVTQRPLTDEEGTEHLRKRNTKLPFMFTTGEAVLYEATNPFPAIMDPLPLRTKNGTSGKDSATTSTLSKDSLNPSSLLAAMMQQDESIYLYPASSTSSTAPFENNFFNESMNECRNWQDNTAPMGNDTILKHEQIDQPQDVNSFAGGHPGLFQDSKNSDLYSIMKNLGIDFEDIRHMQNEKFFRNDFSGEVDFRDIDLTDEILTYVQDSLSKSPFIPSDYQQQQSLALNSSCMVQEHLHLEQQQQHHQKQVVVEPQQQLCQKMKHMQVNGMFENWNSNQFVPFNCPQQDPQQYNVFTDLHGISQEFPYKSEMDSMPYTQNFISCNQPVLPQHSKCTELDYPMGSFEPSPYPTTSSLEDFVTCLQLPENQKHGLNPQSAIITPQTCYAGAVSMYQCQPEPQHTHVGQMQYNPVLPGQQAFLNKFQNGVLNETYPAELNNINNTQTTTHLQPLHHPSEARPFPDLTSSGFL

Experiment [4] is described as follows: inhibitors of firefly luciferase expression or activity, dose response, H4 neuroglioma cells, luminescence (AID 1990). In kind it is functional, cell-based.
Experiment [5] in a line: cells. In kind it is functional, cell-based.
Experiment [6] in a line: Luminescence-based dose response cell-based high throughput screening assay for cytotoxic compounds using the IEC-6 intestinal epithelial cell line. [Related pubchem assays: 1858 (Summary AID.), 1825 (Counterscreen.), 1907 (Confirmation screen.)]. Format: functional. A general note: Counterscreens check selectivity or assay interference.
Experiment [7] is described as follows: inhibitors of SNCA 5'UTR-driven translation, confirmation, luminescence, H4 neuroglioblastoma cells, dose confirmation (AID 2454).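 Note: H4 neuroglioblastoma cells carrying an alpha-synuclein 5'UTR luciferase reporter; potency for inhibition of the luciferase signal.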 In kind it is functional, cell-based.
The nature of experiment [8]: luciferase reporter signal reduction – luminescence, H4-C neuroglioblastoma cells, dose response (AID 2458).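 Note: H4 neuroglioblastoma cells stably carrying a luciferase reporter gene fusion.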 In kind it is functional, cell-based. (In general: A reporter such as luciferase makes a cellular process visible.)
The nature of experiment [9]: inhibitors of SNCA 5'UTR-driven reporter translation, confirmation, H4 neuroglioma cells, luminescence (AID 1988). Format: functional, cell-based.
Experiment [10] can be described thus: Luminescence Cell-Based Dose Response HTS to Identify Inhibitors of 5'UTR Stem-Loop Driven Prion Protein mRNA Translation in H4 Neuroglioblastoma Cells. [Related pubchem assays: 1827 (Project Summary), 1813 (Primary HTS)]. Format: functional.
Experiment [11] has as its system Vero. Kind of experiment: cells. Format: functional, cell-based. The note with it: Chlorocebus sabaeus.
A short description of experiment [12]: Vero cell cytotoxicity, dose response, cytotoxicity control for Vif-APOBEC3G degradation inhibitor project, Vero cells (AID 1117358). Format: functional. The note with it: Human immunodeficiency virus 1, Vero.
Experiment [13] can be described thus: P. falciparum Dd2 growth inhibitors, dose response, SYBR Green, dry powder samples, set 4 (AID 1159572). Format: functional, cell-based.
Experiment [14] concerns the target Mitogen-activated protein kinase 10 (Homo sapiens, UniProt P53779). As to the kind of experiment: Dose response biochemical screening assay for inhibitors of c-Jun N-Terminal Kinase 3 (JNK3). [Related pubchem assays: 746 ].
The nature of experiment [15]: Artemis endonuclease inhibitor potency, dose response, biochemical, fluorescence intensity (AID 720701).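 Note: Artemis endonuclease enzyme.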 In kind it is functional.
The nature of experiment [16]: Plasmodium falciparum Dd2 Sybr green parasite growth Measured in Cell-Based and Microorganism Combination System Using Plate Reader - 2153-01_Inhibitor_Dose_DryPowder_Activity_Set3. Format: functional.
Experiment [17] in a line: P. falciparum 3D7-ScDHODH growth inhibitors, dose response, SYBR Green, dry powder samples (AID 1159570).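 Note: parasite growth measured after 72 hours of compound exposure.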 Format: functional, cell-based.
A short description of experiment [18]: P. falciparum ATP4 D1247Y mutant growth inhibitors, dose response, NITD609-resistant line, SYBR Green, dry powder (AID 1159571).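 Note: parasites synchronized at ring stage by sorbitol before testing.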 Format: functional, cell-based.
A short description of experiment [19]: P. falciparum Dd2 growth inhibitors, dose response, SYBR Green, dry powder samples (AID 1159566).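 Note: potency for growth inhibition with lower SYBR green DNA signal.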 Format: functional, cell-based.
The nature of experiment [20]: HepG2 cell cytotoxicity, dose response, cytotoxicity control, plate reader, dry powder samples (AID 1159569).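 Note: inhibitor potency with signal falling toward the positive control level.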 In kind it is functional, cell-based.
A short description of experiment [21]: P. falciparum Dd2 growth inhibitors, dose response, SYBR Green, dry powder samples, set 9 (AID 1159568). Format: functional, cell-based.
Experiment [22] can be described thus: P. falciparum Dd2 growth inhibitors, dose response, SYBR Green, cherry-picked samples (AID 1159567). In kind it is functional, cell-based.
Experiment [23] can be described thus: THP-1 cell cytotoxicity, dose response, cytotoxicity control for Vif-APOBEC3G degradation inhibitor project, THP-1 cells (AID 1117359). In kind it is functional. The note with it: Human immunodeficiency virus 1, THP-1.
In experiment [24] the test system is HEK293. As to the kind of experiment: cells. The note with it: Homo sapiens.
The test system of experiment [25] is HEK293. Kind of experiment: cells. The note with it: Homo sapiens. The source holds these as a separate data set.
The target of experiment [26] is Bcl-2-like protein 1 (Homo sapiens, UniProt Q07817). Kind of experiment: BCL-XL inhibitors, dose response, selectivity assay for MCL1 inhibitor project, biochemical, fluorescence polarization, 1536-well (AID 2218). A general note: In fluorescence polarisation assays a small probe gives low polarisation when free and higher when bound to something large.
Bcl-2-like protein 1, sequence (Q07817 whole entry): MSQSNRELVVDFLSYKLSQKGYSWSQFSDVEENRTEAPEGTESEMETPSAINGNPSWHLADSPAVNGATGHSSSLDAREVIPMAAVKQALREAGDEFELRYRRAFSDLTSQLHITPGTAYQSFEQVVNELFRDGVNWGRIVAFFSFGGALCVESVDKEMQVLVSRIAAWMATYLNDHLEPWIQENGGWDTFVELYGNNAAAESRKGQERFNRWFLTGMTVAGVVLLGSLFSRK
The target of experiment [27] is T2, Induced myeloid leukemia cell differentiation protein Mcl-1 (Homo sapiens, UniProt Q07820). In kind it is functional.
T2 sequence (Q07820 whole entry): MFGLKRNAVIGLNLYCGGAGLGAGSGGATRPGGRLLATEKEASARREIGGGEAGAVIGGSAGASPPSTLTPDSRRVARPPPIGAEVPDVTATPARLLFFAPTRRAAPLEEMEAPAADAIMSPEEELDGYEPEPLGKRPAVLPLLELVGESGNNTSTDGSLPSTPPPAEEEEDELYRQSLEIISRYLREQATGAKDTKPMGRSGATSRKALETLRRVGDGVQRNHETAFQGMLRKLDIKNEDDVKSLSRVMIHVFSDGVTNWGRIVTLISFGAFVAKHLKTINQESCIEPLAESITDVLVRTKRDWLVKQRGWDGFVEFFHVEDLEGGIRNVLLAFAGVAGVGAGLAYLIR
Experiment [28] concerns the target T2, Induced myeloid leukemia cell differentiation protein Mcl-1. Kind of experiment: MCL1-BIM BH3 interaction inhibitors, dose response, biochemical, fluorescence polarization, BIM-BH3 peptide, 1536-well (AID 2217).
Experiment [29] addresses T3, Luciferin 4-monooxygenase (Photuris pensylvanica, UniProt Q27757).
T3 sequence (Q27757 whole entry): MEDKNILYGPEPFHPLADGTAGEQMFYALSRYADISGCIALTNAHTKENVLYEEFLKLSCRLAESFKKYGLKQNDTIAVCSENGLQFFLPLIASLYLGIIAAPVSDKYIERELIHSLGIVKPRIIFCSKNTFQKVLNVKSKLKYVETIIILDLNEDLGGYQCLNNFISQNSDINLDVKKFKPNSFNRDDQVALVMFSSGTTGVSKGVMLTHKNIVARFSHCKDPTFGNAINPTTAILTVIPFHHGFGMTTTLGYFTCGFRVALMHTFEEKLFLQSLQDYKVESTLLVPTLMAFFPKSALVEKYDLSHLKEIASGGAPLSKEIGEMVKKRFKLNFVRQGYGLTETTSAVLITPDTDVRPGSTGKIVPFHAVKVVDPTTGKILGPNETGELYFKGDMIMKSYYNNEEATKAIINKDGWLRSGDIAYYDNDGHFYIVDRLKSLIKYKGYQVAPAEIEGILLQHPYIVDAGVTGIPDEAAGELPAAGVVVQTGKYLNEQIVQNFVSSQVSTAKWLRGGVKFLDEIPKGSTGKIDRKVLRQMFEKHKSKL
Kind of experiment: firefly luciferase enzyme inhibitors, dose response, counter-screen for HSF-1 reporter inhibitor project, biochemical, Cell Titer Glo, luminescence, cherry-picks (AID 588847).

Experiment [30] deals with Heat shock protein HSP 90-alpha (Homo sapiens, UniProt P07900). Kind of experiment: Luminescence-based dose response biochemical high throughput screening assay for inhibitors of the Heat Shock Protein 90 (HSP90). [Related pubchem assays: 1831 (Summary AID.), 1846 (Confirmation screen.), 1789 (Primary screen.)].
Experiment [31] deals with Neuropeptides B/W receptor type 1 (Homo sapiens, UniProt P48145). As to the kind of experiment: Fluorescence-based dose response cell-based high throughput screening assay to identify antagonists of the G-protein coupled receptor 7 (GPR7). [Related pubchem assays: 1952 (Screening assay (GPR7 antagonists).), 1880 (Summary AID.)]. In kind it is functional.
Neuropeptides B/W receptor type 1, sequence (P48145 whole entry): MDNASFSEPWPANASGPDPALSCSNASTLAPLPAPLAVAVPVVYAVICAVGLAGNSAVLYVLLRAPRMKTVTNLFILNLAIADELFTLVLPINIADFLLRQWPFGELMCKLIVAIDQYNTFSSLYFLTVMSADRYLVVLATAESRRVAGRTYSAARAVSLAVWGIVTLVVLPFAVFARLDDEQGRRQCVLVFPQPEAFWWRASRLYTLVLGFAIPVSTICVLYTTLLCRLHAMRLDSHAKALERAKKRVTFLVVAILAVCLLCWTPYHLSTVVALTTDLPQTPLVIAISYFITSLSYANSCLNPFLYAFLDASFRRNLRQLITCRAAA
The target of experiment [32] is Melanin-concentrating hormone receptor 1 (Homo sapiens, UniProt Q99705). As to the kind of experiment: Fluorescence-based counterscreen for antagonists of the G-protein coupled receptor 7 (GPR7): cell-based high throughput dose response assay to identify antagonists of the melanin-concentrating hormone receptor 1 (MCHR1). Format: functional.
Melanin-concentrating hormone receptor 1, sequence (Q99705 whole entry): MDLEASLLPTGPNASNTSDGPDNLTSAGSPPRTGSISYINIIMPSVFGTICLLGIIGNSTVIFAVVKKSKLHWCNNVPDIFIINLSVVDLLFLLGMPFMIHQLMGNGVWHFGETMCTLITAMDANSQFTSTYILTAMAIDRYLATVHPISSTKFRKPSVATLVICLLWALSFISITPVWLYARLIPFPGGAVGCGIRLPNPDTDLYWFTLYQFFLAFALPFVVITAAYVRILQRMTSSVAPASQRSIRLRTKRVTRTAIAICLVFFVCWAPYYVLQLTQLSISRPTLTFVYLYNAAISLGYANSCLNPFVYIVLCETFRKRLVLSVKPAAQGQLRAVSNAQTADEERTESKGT

T1 sequence (Q9Y5S8 whole entry): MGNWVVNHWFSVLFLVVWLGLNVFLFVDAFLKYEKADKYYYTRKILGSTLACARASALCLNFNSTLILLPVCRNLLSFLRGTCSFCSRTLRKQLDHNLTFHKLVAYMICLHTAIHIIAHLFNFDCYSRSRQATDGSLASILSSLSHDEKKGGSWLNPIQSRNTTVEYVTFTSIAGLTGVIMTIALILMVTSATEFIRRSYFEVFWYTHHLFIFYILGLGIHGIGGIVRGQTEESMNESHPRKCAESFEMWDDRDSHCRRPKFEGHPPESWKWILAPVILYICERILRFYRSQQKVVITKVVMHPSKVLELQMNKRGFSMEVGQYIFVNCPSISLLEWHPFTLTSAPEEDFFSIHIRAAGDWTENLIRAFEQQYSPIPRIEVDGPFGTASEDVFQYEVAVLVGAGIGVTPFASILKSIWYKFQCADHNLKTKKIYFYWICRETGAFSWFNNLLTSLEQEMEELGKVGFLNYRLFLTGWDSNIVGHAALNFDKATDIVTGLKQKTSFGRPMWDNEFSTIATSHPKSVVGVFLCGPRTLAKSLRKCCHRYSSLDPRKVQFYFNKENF
Mitogen-activated protein kinase 10, sequence (P53779 whole entry): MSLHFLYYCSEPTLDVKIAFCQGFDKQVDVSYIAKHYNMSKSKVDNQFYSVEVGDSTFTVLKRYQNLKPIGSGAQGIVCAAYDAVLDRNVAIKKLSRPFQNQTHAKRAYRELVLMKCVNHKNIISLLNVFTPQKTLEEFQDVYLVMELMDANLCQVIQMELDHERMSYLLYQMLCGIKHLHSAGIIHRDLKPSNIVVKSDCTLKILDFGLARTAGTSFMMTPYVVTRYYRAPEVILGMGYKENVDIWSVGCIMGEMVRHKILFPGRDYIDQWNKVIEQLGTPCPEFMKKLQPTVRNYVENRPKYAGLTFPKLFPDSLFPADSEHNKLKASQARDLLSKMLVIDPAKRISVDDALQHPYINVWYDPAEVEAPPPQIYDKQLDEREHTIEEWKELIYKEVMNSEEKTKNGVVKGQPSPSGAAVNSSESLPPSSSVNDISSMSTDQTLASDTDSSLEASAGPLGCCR

For orientation: IC50 means the midpoint of a concentration-inhibition curve. Regarding `O=C(Nc1ccc(OCc2ccccc2)cc1)Nc1ccc([N+](=O)[O-])cc1`, the IC50 in [1] was > 17 µM (not active).

Take `CN1c2ccccc2Sc2cc(NC(=O)c3ccc(N=[N+]=[N-])cc3)ccc21`: the IC50 in experiment [2] was 17.7 µM (active).

A word on the EC50: it is the concentration at which the effect is half-maximal. Take `Nc1cccc(Nc2ncnc3ccccc23)c1`: the EC50 in experiment [3] is 3.58 µM (active).

`CN(C)c1ccc(C(=O)c2ccc(N(C)C)c3ccccc23)cc1`: the EC50 was < 0.1 µM (active) in [4]; 0.112 µM (active) in [5]; 0.118 µM (active) in experiment [7]; 0.103 µM (active) in experiment [8]; < 0.1 µM (active) in [9]; < 0.1 µM (active) in experiment [10]. In addition, the IC50 in [6] is 0.146 µM (active); in [11], > 25 µM (active).

For orientation: CC50 means the concentration giving 50% cytotoxicity. Consider `O=C(c1ccco1)c1cn(Cc2ccccc2)c2ccccc12`, for which the CC50 in experiment [12] was > 40 µM (active).

The term AC50 denotes the midpoint of the concentration-response curve, whichever way the signal moves. Take `COc1ccc2c3c([nH]c2c1)[C@H](CO)N(C(C)=O)CC31CCN(C(=O)c2ccc3c(c2)OCO3)CC1`: in [13], the AC50 is 6.93 µM (active).

`Cc1c(-c2nc(N)nc(Nc3ccccc3)n2)oc2ccccc12`: the IC50 is > 93.1 µM (not active) in [14] and 7.66 µM (active) in experiment [15].

`CCCC(=O)Nc1ccc2c(c1)OC[C@@H](C)N(Cc1cc(F)ccc1F)C[C@@H](C)[C@H](OC)CN(C)C2=O`: the AC50 in experiment [16] is 2.07 µM (active); in experiment [17] it was 7.15 µM (active); in [18], 2.81 µM (active); in [19], 0.322 µM (active); in experiment [20], > 100 µM (inactive); in [21], 0.978 µM (active). Besides, in experiment [22], the AC50 is 0.817 µM (active).

Turning to `O=C(N/N=C/C(Br)=C/c1ccccc1)c1cc(-c2ccco2)[nH]n1`, in experiment [23], the CC50 is 33.1 µM (active). In addition, the EC50 in [24] and in experiment [25] was > 59.6 µM (inactive) each time.

For `O=c1c2c3c(sc2[nH]c(=S)n1Cc1ccco1)CCC3`, the IC50 in experiment [26] is > 109 µM (not active); in experiment [27], 2.1 µM (active); in experiment [28], 77.8 µM (not active).

In the case of `Cc1c(-c2nc(-c3ccc(C(C)(C)C)cc3)no2)n(C)oc1=O`, the AC50 in experiment [29] was > 52 µM (inactive). Besides, the concentration for half-maximal inhibition (IC50) in [30] is > 0.003 µM (active).

With `O=C(NC1CCCC1)C(c1ccccc1)N(Cc1ccco1)C(=O)Cc1cccs1` (configuration not stated), the IC50 in [31] was > 43.8 µM (not active); in experiment [32] it was 4.76 µM (active).
